Columns and labels:
[1] = system: E. coli; assay type: cell-based, Escherichia coli; details: 3 kGy; TGY supplemented with 1 μM Mn^2+, 13 mM phosphate, 3 mM uridine or 384 mM (3%) DMSO individually
Protocol: FIG. 3 depicts the survival curves of E. coli exposed to acute IR and grown in the presence of various supplements: TGY, standard peptide-rich growth medium; DMSO, dimethyl sulfoxide; UMnP, 3 mM uridine/1 μM Mn^2+/13 mM PiB (phosphate buffer).
Individually and in combination, the radioprotective properties of Mn^2+, phosphate, uridine and DMSO were determined using E. coli grown in TGY medium; TGY is a peptide-rich medium based on yeast extract, and contains approximately 200 nM Mn.

[2] = system: bacterial cell culture; assay: Radioprotection of a bacterial cell culture; assay type: cell-based; details: agent alone
Text: (§1) Applicants have shown that adenosine alone and Mn(II) alone are radioprotective […] for a mammalian cell line and for a bacterial cell culture.

[3] = system: mammalian cell line; assay: Radioprotection of a mammalian cell line; assay type: cell-based; details: agent alone
Text: as §1

Row | Compound | increase of the resistance of E. coli [1] | radioprotection of a bacterial cell culture [2] | radioprotection of a mammalian cell line [3]
1 | C[S+](C)[O-] [DMSO, dimethyl sulfoxide] | 50 times | – | –
2 | [Mn+2] [Mn^2+] | did not increase the resistance | radioprotective | radioprotective
3 | Nc1ncnc2c1ncn2[C@@H]1O[C@H](CO)[C@@H](O)[C@H]1O [adenosine] | – | radioprotective | radioprotective
4 | O=c1ccn([C@@H]2O[C@H](CO)[C@@H](O)[C@H]2O)c(=O)[nH]1 [uridine] | 50 times | – | –
5 | phosphate | 800 times | – | –

From US9234168B2, “Compositions containing amino acids, phosphate and manganese and their uses” (The Henry M. Jackson Foundation for the Advancement of …, priority 2010, dated 2016)
